Read-outs that look alike come from different tables or passages of the source.
Assays:
Microsomal stability = assay type: in vitro ADME, mouse; details: 1 μM; for Metabolic stability in mouse liver microsomes: incubation for 1 h
Procedure: For microsomal stability, individual ginsenoside (1 μM each) was reconstituted in 100 mM potassium phosphate buffer (pH 7.4) containing 0.25 mg of mouse liver microsomes and preincubated for 5 min at 37 °C. This reaction was initiated by adding an NADPH-generating system (1.3 mM β-NADP, 3.3 mM glucose-6-phosphate, 3.3 mM MgCl2, and 1.0 unit/mL glucose-6-phosphate dehydrogenase; purchased form Corning Life Sciences) (to make final volume of 100 μL). The reaction mixture was incubated for 1 h at 37 °C in a shaking water bath and the reaction was quenched by addition of addition of an ice-cold IS solution (200 μL; 0.05 ng/mL berberine in methanol) to 30 μL of the reaction samples.
(§1) Subsequent protocols were identical to the method described above except for the use of ice-cold IS solution (200 μL; 0.05 ng/mL berberine in acetonitrile) to 30 μL of the reaction samples.
Plasma and microsomal stability was determined from the percent of remaining concentration of ginsenosides or marker compounds compared to their initial concentration.

[1] = system: lactic acid bacteria (LAB); assay: In vitro RGE fermentation with LAB; details: for Increase of ginsenoside by fermentation of RGE with LAB: 7 days, relative to the first day; for Alteration of ginsenoside by fermentation of RGE with LAB: 7 days incubation
[2] = Recovery of ginsenosides from urine and feces for 48 h after RGE, amoxicillin with or without LAB; details: feces 48 h after single oral RGE 2 g/kg; Amoxicillin + LAB vs amoxicillin
Procedure: (§2) Mice received amoxicillin (n = 12, 20 mg/kg, dissolved in water at 2 mL/kg, twice daily) for 3 days via oral gavage. From the 4th day, mice from the LAB + amoxicillin treatment group received LAB (2 g/kg suspended in water at 2 mL/kg, once daily) for 7 days via oral gavage. Mice from the amoxicillin treatment group received water (2 mL/kg, once daily) for 7 days via oral gavage.

[3] = Pharmacokinetics of ginsenosides after single oral RGE after amoxicillin with or without repeated LAB treatment; details: single oral RGE 2 g/kg; for AUC: AUC 0 to 48 h
Procedure: as §2
Blood sampling was performed using a sparse sampling method via the right or left retro-orbital vein under isoflurane anesthesia at 0, 2, 4, and 8 h after the RGE administration through the heparinized capillary tube. […] After centrifugation of the blood samples at 10,000× g for 1 min, 30 μL aliquots of plasma were stored at −80 °C until the analysis of the ginsenosides. Subsequent protocols were identical to the amoxicillin treated group.
Pharmacokinetic parameters were calculated using WinNonlin (version 5.1, Pharsight, Mountain View, CA, USA) by a non-compartmental analysis.

[4] = system: lactic acid bacteria (LAB); assay: Incubation of single ginsenoside with LAB (formation rate of metabolite ginsenoside); assay type: in vitro ADME; details: 7 days, 37 °C, MRS broth
Procedure: To compare the involvement of LAB on individual ginsenoside, an aliquot (10 μL) of each ginsenoside stock solution (10 mM in methanol) was mixed with autoclaved MRS broth (550 mg/10 mL in distilled water) and added 2 g of LAB (contained 1 billion CFU). Then, the mixture was incubated for 7 days in a shaking incubator at 37 °C and 300 rpm. For the analysis of ginsenosides, 0.2 mL aliquot of incubation mixture was collected every 24 h for 7 days. The incubation medium was diluted 100-fold with distilled water and stored at −80 °C. For the ginsenoside analysis, 200 μL of an IS solution (0.05 ng/mL berberine in methanol) was added to 30 μL of 100-fold diluted samples.

[5] = Plasma protein binding by rapid equilibrium dialysis; assay type: in vitro ADME; details: 1 μM, 4 h at 37 °C, mouse plasma
Procedure: Briefly, 100 μL of mouse plasma containing 1 μM of each ginsenoside was added to the semipermeable membrane’s inner sample chamber (molecular weight cut-off 8000 Da), and 300 μL of PBS was added to the outer buffer chamber. The samples were then incubated for 4 h at 37 °C on a shaking incubator at 300 rpm, followed by collecting 30-μL aliquots from both the sample and buffer chambers.
as §1
Plasma protein binding was calculated using the following equation [31, 60]: Plasma protein binding=(1−Drug concentration in buffer chamber/Drug concentration in plasma sample chamber)×100(%).

[6] = Pharmacokinetics of ginsenosides after single oral RGE with or without amoxicillin treatment; assay type: in vivo, mice; details: single oral RGE 2 g/kg; for AUC: AUC 0 to 48 h
Procedure: Male ICR mice (7-weeks-year-old, 30–35 g) were purchased from Samtako Co. (Osan, Kyunggi-do, Korea). Animals were acclimatized for 1 week in an animal facility at Kyungpook National University. Food and water were available ad libitum.
Before blood sampling, mice were anesthetized using isoflurane (isoflurane vaporizer to 2% with oxygen flow at 0.8 L/min) for 5 min.

[7] = design: method as in PMID 32023909; details: cited from earlier work
[8] = Recovery of ginsenosides from urine and feces for 48 h after RGE, amoxicillin vs control; details: for Fecal recovery, change by the amoxicillin treatment: feces 48 h after single oral RGE 2 g/kg, vs control; for Ginsenosides identified in urine: urine 48 h after single oral RGE 2 g/kg
Procedure: Aliquots (200 μL) of an IS (0.05 ng/mL berberine in methanol) were added to 30 μL of plasma or urine samples. Aliquots (600 μL) of an IS methanol solution containing 0.05 ng/mL berberine were added to 100 μL of 10% feces homogenate samples. […] After centrifugation, 200 μL of the supernatant was transferred to a clean tube and dried under a nitrogen stream at 40 °C. The residue was reconstituted using 100 μL of 70% methanol supplemented with 0.1% formic acid, and a 10-μL aliquot was injected into the LC–MS/MS system.

[9] = design: method as in PMID 27516803, PMID 24235859; details: cited from earlier work
[10] = design: method as in PMID 29375375, PMID 28955238; details: 100–400 mg of CK, once daily for 9 days; cited from earlier work
[11] = Amoxicillin 3 days pretreatment
[12] = Amoxicillin 3 days then water 7 days
[13] = Amoxicillin + LAB (LAB 2 g/kg once daily 7 days)

Fecal recovery, change by LAB treatment [2]	Detection in mouse plasma following repeated LAB administration in addition to amoxicillin [3]	Alteration of ginsenoside by fermentation of RGE with LAB [1]	Cmax ([6]; Control, plasma) [ng/mL]	Half-Life ([6]; Control, plasma) [h]	MRT ([6]; Control, plasma) [h]	Tmax ([6]; Control, plasma) [h]	AUC ([6]; Control, plasma, n = 3) [ng·h/mL]	Fecal recovery, change by the amoxicillin treatment [8]	Ginsenosides identified in urine [8]	AUC [3, 13] [ng·h/mL]	Cmax ([3]; Amoxicillin + LAB) [ng/mL]	Half-Life ([3]; Amoxicillin + LAB) [h]	MRT ([3]; Amoxicillin + LAB) [h]	Tmax ([3]; Amoxicillin + LAB) [h]	Plasma exposure / pharmacokinetic parameters, LAB treatment compared with amoxicillin group [3]	Structure (SMILES)	Metabolite formation on incubation of single ginsenoside with LAB [4]	further results
																CN(C)C(=N)N=C(N)N [metformin, reference compound]		percent of remaining after 1 h incubation in the mouse liver microsomes (Microsomal stability; NADPH-generating system, 37 °C): 69.35 ± 3.00%
remained similar		most significant decrease														CC(C)=CCC[C@](C)(O[C@@H]1O[C@H](CO)[C@@H](O)[C@H](O)[C@H]1O)[C@H]1CC[C@]2(C)[C@@H]1[C@H](O)C[C@@H]1[C@@]3(C)CC[C@H](O)C(C)(C)[C@@H]3[C@@H](O)C[C@]12C [GF1]		Plasma protein binding [5]: over 99%
significantly decreased	detected	most significant decrease	17.2 ± 3.1	22.8 ± 6.7	19.9 ± 1.7	8.0 ± 0.0	508.6 ± 109	increased	identified in urine	524.4 ± 146.6	18.3 ± 4.3	24.1 ± 2.4	19.0 ± 1.3	8.0 ± 0.0	not different	CC(C)=CCC[C@](C)(O[C@@H]1O[C@H](CO[C@@H]2O[C@@H](CO)[C@H](O)[C@H]2O)[C@@H](O)[C@H](O)[C@H]1O)[C@H]1CC[C@]2(C)[C@@H]1[C@H](O)C[C@@H]1[C@@]3(C)CC[C@H](O[C@@H]4O[C@H](CO)[C@@H](O)[C@H](O)[C@H]4O[C@@H]4O[C@H](CO)[C@@H](O)[C@H](O)[C@H]4O)C(C)(C)[C@@H]3CC[C@]12C [GRc]	produced GRg3 with the highest formation rate	Cmax [6, 11]: 14.8 ± 6.6 ng/mL; Half-Life [6, 11]: 25.1 ± 9.9 h; MRT [6, 11]: 21.9 ± 1.5 h; Tmax [6, 11]: 13.3 ± 9.2 h; AUC [6, 11]: 571.7 ± 276 ng·h/mL; Plasma concentrations, amoxicillin treatment compared to the control group [6]: not significantly affected; Ratio of liver AUC to plasma AUC [7]: < 0.2; Cmax [3, 12]: 13.2 ± 6.6 ng/mL; Half-Life [3, 12]: 20.2 ± 1.8 h; MRT [3, 12]: 20.6 ± 1.2 h; Tmax [3, 12]: 4.7 ± 3.1 h; AUC [3, 12]: 448.2 ± 268.1 ng·h/mL
significantly increased	detected	significantly increased	3.6 ± 1.4	13.2 ± 3.2	13.9 ± 5.3	8.0 ± 0.0	69.94 ± 37.8	significantly decreased	identified in urine	249.8 ± 103.0	9.3 ± 2.9	12.0 ± 5.0	13.7 ± 6.2	8.0 ± 0.0	increased	CC(C)=CCC[C@](C)(O[C@@H]1O[C@H](CO)[C@@H](O)[C@H](O)[C@H]1O)[C@H]1CC[C@]2(C)[C@@H]1[C@H](O)C[C@@H]1[C@@]3(C)CC[C@H](O)C(C)(C)[C@@H]3CC[C@]12C [CK, 20(S)-compound K]		Detection in plasma, amoxicillin treatment group [6]: not seen; Detection in plasma, control group [6]: detected; Plasma concentration of CK, Cmax ([9]; subjects who received 3 g fermented RGE (contains 10.9 mg CK)): 254.5 ng/mL; Plasma concentration of CK, Cmax ([9]; subjects who received RGE (does not contain CK)): 8.4 to 24.8 ng/mL; Safety and tolerability [10]: safe and well-tolerated; Increase of ginsenoside by fermentation of RGE with LAB [1]: about 30%
significantly decreased	detected	most significant decrease	12.5 ± 2.1	24.6 ± 6.7	19.4 ± 1.6	8.0 ± 0.0	361.4 ± 74.3	increased	identified in urine	419.2 ± 108.6	15.1 ± 3.4	21.6 ± 1.7	18.1 ± 0.9	8.0 ± 0.0	not different	CC(C)=CCC[C@](C)(O[C@@H]1O[C@H](CO[C@@H]2OC[C@H](O)[C@H](O)[C@H]2O)[C@@H](O)[C@H](O)[C@H]1O)[C@H]1CC[C@]2(C)[C@@H]1[C@H](O)C[C@@H]1[C@@]3(C)CC[C@H](O[C@@H]4O[C@H](CO)[C@@H](O)[C@H](O)[C@H]4O[C@@H]4O[C@H](CO)[C@@H](O)[C@H](O)[C@H]4O)C(C)(C)[C@@H]3CC[C@]12C [GRb2]	produced GRg3 with the highest formation rate	Cmax [6, 11]: 10.3 ± 4.6 ng/mL; Half-Life [6, 11]: 25.1 ± 2.7 h; MRT [6, 11]: 21.4 ± 1.6 h; Tmax [6, 11]: 13.3 ± 9.2 h; AUC [6, 11]: 391.5 ± 192 ng·h/mL; Plasma concentrations, amoxicillin treatment compared to the control group [6]: not significantly affected; Ratio of liver AUC to plasma AUC [7]: < 0.2; Cmax [3, 12]: 10.9 ± 5.2 ng/mL; Half-Life [3, 12]: 19.2 ± 2.3 h; MRT [3, 12]: 20.2 ± 1.7 h; Tmax [3, 12]: 4.0 ± 0.0 h; AUC [3, 12]: 385.9 ± 243.6 ng·h/mL

Structure (SMILES)	Fecal recovery, change by LAB treatment [2]	Detection in mouse plasma following repeated LAB administration in addition to amoxicillin [3]	Alteration of ginsenoside by fermentation of RGE with LAB [1]	Cmax ([6]; Control, plasma) [ng/mL]	Half-Life ([6]; Control, plasma) [h]	MRT ([6]; Control, plasma) [h]	Tmax ([6]; Control, plasma) [h]	AUC ([6]; Control, plasma, n = 3) [ng·h/mL]	Fecal recovery, change by the amoxicillin treatment [8]	Ginsenosides identified in urine [8]	AUC [3, 13] [ng·h/mL]	Cmax ([3]; Amoxicillin + LAB) [ng/mL]	Half-Life ([3]; Amoxicillin + LAB) [h]	MRT ([3]; Amoxicillin + LAB) [h]	Tmax ([3]; Amoxicillin + LAB) [h]	Plasma exposure / pharmacokinetic parameters, LAB treatment compared with amoxicillin group [3]	Metabolite formation on incubation of single ginsenoside with LAB [4]	further results
CC(C)=CCC[C@](C)(O)[C@H]1CC[C@]2(C)[C@@H]1[C@H](O)C[C@@H]1[C@@]3(C)CC[C@H](O)C(C)(C)[C@@H]3[C@@H](O[C@@H]3O[C@H](CO)[C@@H](O)[C@H](O)[C@H]3O)C[C@]12C [GRh1, ginsenoside Rh1]	remained similar	not found																Metabolic stability in mouse liver microsomes (Microsomal stability): unstable; Increase of ginsenoside by fermentation of RGE with LAB [1]: about 30%
CC(C)=CCC[C@](C)(O)[C@H]1CC[C@]2(C)[C@@H]1[C@H](O)C[C@@H]1[C@@]3(C)CC[C@H](O[C@@H]4O[C@H](CO)[C@@H](O)[C@H](O)[C@H]4O)C(C)(C)[C@@H]3CC[C@]12C [GRh2]	remained similar	not found	remained unchanged														the highest among the ginsenoside formation rate	Metabolic stability in mouse liver microsomes (Microsomal stability): unstable

— paper PMC8469489, “Effect of Lactic Acid Bacteria on the Pharmacokinetics and Metabolism of Ginsenosides in Mice” (Pharmaceutics, 2021)
